# In patent publication US11630110B2, “Methods to identify protein interaction” (AGENCY FOR SCIENCE, TECHNOLOGY AND RESEARCH, priority 2017, dated 2023):
# What was measured:
# [1] = tested on: NF-kβ signaling pathway; experiment: Western blotting of NFκB signalling pathway members; type: cell-based; conditions: K562 cells, 20 μM methotrexate 48 hours, presence and absence of TNF; FIG. 16A
# Description: Cells were washed with DPBS (without calcium and magnesium) once, then lysed in TOTEX Buffer (20 mM Hepes at pH 7.9, 0.35M NaCl, 20% Glycerol, 1% NP-40, 1 mM MgCl2, 0.1 mM EGTA) including 50 mM NaF, 0.3 mM […] and protease inhibitor cocktail. Supernatant including proteins was collected, followed by centrifugation at full speed for 20 minutes. Western blotting was performed by following standard procedures using the following antibodies: Rabbit Anti-phospho-IKKα/β (S180/181) (1:1,000; Bioworld Technology, BS5082), Rabbit Anti-phospho-IKBα (S32) (1:1,000; Cell Signalling Technology, 2859), Rabbit Anti-IKBα (1:1,000; Santa Cruz Biotechnology, sc-371), Rabbit Anti-phospho-p65 ([…]) (1:1,000; Cell Signalling Technology, 3031), Mouse Anti-HSP90 (1:1,000; BD, 610419), Goat Anti-Rabbit IgG-HRP (1:5,000; Santa Cruz Biotechnology, sc-2054) and Goat Anti-Mouse IgG-HRP (1:5,000; Santa Cruz Biotechnology, sc-2005).
# [2] = tested on: K562 cells; experiment: DNA content analysis by FACS of propidium iodide staining; type: cell-based; conditions: 20 μM methotrexate, 48 hours, vs DMSO, FIG. 34
structure (smiles),measurement,setting,value
CN(Cc1cnc2nc(N)nc(N)c2n1)c1ccc(C(=O)N[C@@H](CCC(=O)O)C(=O)O)cc1 [methotrexate],activation of the NF-kβ signaling pathway,[1],suppressing activation
same,"phosphorylation of IKKα/β complex, IκBα and p65",[1],inhibiting phosphorylation
same,cell cycle state of K562 cells,[2],arrested in the S phase
